The conditions of series [1]: proximal tourniquet applied before intraosseous administration, ref Young et al., 2014, Chin et al., 2018, Rubio-Martinez et al., 2006, cited from earlier work.
Series [2] has as its system Commonly encountered bacteria in orthopaedic infections. The arrangement: method as in Rybak, 2006; EUCAST, 2019. Particulars: range for commonly encountered bacteria in orthopaedic infections; ref Rybak, 2006; EUCAST, 2019; cited from earlier work.
Series [3] in a line: Plasma vancomycin concentrations after tibial intraosseous administration. Particulars: pig, 500 mg intraosseous, no tourniquet, mean (SD), n = 8.
Experimental: (§1) Eight female pigs, from the same supplier and raised under the same conditions, were included in the study (Danish Landrace Breed, age 5 months, weight 78–82 kg). The pigs were kept under general anesthesia with a continuous infusion of propofol (450–650 mg/h) and fentanyl (0.5–0.7 mg/h) throughout the entire study period. The arterial pH and body temperature were monitored and kept in the ranges of 7.37–7.52 and 36.4–40.0 ^∘ C, respectively. After the study, the pigs were euthanized using pentobarbital.
(§2) Afterwards, all probes were individually calibrated by the retrodialysis method by collecting a 60 min sample. […] The first three dialysates were collected at times 40, 80, and 120 min. Thereafter, dialysates were collected at 60 min intervals from times 120 to 720 min, giving a total of 13 samples from each compartment over 12 h. Blood samples were drawn from a central venous catheter at the midpoint of the microdialysis sample intervals. The dialysates were instantly stored at -80 ^∘ C until analysis. Blood samples were stored at 5 ^∘ C for a maximum of 4 h before being centrifuged at 3000 rpm for 10 min. The obtained plasma aliquots were then stored at -80 ^∘ C until analysis.
(§3) Intra-run (total) imprecisions for the assay were ±1.2 µg/mL (2 standard deviations – SD) at 6.6 and ±3.7 µg/mL (2 SD) at 29.1 µg/mL .
Standard pharmacokinetic parameters were determined separately for each compartment in each pig by non-compartmental analysis using Stata (v. 14.1, StataCorp LLC, College Station, TX, USA). The area under the concentration–time curve (AUC 0-last ) was calculated using the trapezoidal rule. The maxima of all the recorded concentrations were defined as peak drug concentration ( Cmax ) and enabled a calculation of the time to Cmax ( Tmax ). Half-life ( T1/2 ) was determined for all compartments except for tibial cortical bone and calculated as ln(2)/ λeq , where λeq is the terminal elimination rate constant estimated by linear regression of the log concentration on time. For AUC 0-last and Cmax , a mixed model for repeated measurements was applied, taking the variance between pigs into account. The model assumptions were tested by visual diagnosis of residuals, fitted values, and estimates of random effects. A correction for degrees of freedom due to small sample size was handled using the Kenward–Roger approximation method. The t test was used to determine relevant pairwise comparisons. A p value <0.05 was considered to be significant. A Spearman test was used to test the correlation between the distance of the intraosseous cannula and the adjacent cancellous bone drill hole with the peak drug concentration. Statistical analyses were also performed using Stata. […] Values below the quantification limit were set to zero.
The conditions of series [4]: pig, 500 mg intraosseous, no tourniquet, microdialysis, mean (SD), n = 8; for AUC 0-last: 12 h.
Experimental: as §1
An intraosseous cannula (15 mm) was inserted into the medial tibial condyle approximately 10 mm distal to the epiphyseal line; see Fig. 1. Three tibial microdialysis probes were placed in drill holes, one in the adjacent cancellous bone parallel to and at a mean distance of 9 (range 7–10) mm from the intraosseous cannula tip (drill depth 35±1 mm), one in the cortical bone at the anterior–medial margin of the tibial diaphysis (drill depth 14±0.5 mm), and one within the intramedullary canal of the tibial diaphysis. All drill holes were made with a 2 mm drill, which was paused every few seconds to prevent overheating of the bone tissue. Subsequently, a probe was placed in the synovial fluid of the knee joint using a splittable introducer. Finally, a subcutaneous tissue probe was placed lateral to the knee joint. No tourniquet was applied. Correct positions of all the probes and the distance between the intraosseous cannula and the adjacent cancellous bone microdialysis catheter were verified by fluoroscopy.
Due to continuous perfusion of the microdialysis system, a complete equilibrium across the semipermeable membrane will never occur. The concentration in the dialysate will therefore only represent a fraction of the absolute tissue concentration, which is expressed as the relative recovery. Thus, relative recovery must be determined to assess the absolute tissue concentrations. In the present study, all microdialysis probes were individually calibrated in the beginning of the study using the retrodialysis by drug method (Scheller and Kolb, 1991).
In the present study we used CMA 107 precision pumps ( μ -Dialysis AB, Stockholm, Sweden) producing a flow rate of 1 µL/min and CMA 70 probes (membrane lengths 10 and 20 mm, molecular cutoff 20 kDa).
as §2, §3
Standard pharmacokinetic parameters were determined separately for each compartment in each pig by non-compartmental analysis using Stata (v. 14.1, StataCorp LLC, College Station, TX, USA). The area under the concentration–time curve (AUC 0-last ) was calculated using the trapezoidal rule. The maxima of all the recorded concentrations were defined as peak drug concentration ( Cmax ) and enabled a calculation of the time to Cmax ( Tmax ).
The mark [5] stands for this setting: intramedullary canal in the tibia.
Setting [6] is: synovial fluid of the knee joint.

Where two headings read alike, the source gives them in different places. Marks after values point to notes of the source that are not given here.

In the case of `CN[C@H](CC(C)C)C(=O)N[C@H]1C(=O)N[C@@H](CC(N)=O)C(=O)N[C@H]2C(=O)N[C@H]3C(=O)N[C@H](C(=O)N[C@H](C(=O)O)c4cc(O)cc(O)c4-c4cc3ccc4O)[C@H](O)c3ccc(c(Cl)c3)Oc3cc2cc(c3O[C@@H]2O[C@H](CO)[C@@H](O)[C@H](O)[C@H]2O[C@H]2C[C@](C)(N)[C@H](O)[C@H](C)O2)Oc2ccc(cc2Cl)[C@H]1O` [vancomycin], in series [1] (range), the “systemic vancomycin plasma levels after tourniquet deflation” value was 1.8 to 6.0 µg/mL. For the same molecule, the “increase of plasma levels after tourniquet deflation” value in series [1] is 4–10 fold. In addition, the “systemic vancomycin plasma levels during tourniquet inflation” value in series [1] was 0.0 to 2.7 µg/mL. In addition, in series [2], the “planktonic MIC” value is 0.5 to 4 µg/mL. Also, the “AUC 0-last” value is given as 3,673 (611) min µg/mL in series [3] (plasma (free concentration, enzyme immunoassay), 12 h); 1980 (908) ^a min µg/mL in series [4] (setting [5]); 1881 (691) ^a min µg/mL in series [4] (subcutaneous tissue); 1565 (758) ^a min µg/mL in series [4] (setting [6]); 326 (331) min µg/mL in series [4] (tibial cortical bone). In series [3] (plasma (free concentration, enzyme immunoassay)), the “Cmax (peak drug concentration)” value is 19 (2) µg/mL. Besides, the T1/2 in series [3] (plasma) was 254 (128) min; in series [4] (setting [5]), 339 (332) min; in series [4] (subcutaneous tissue), 361 (269) min; in series [4] (setting [6]), 217 (140) min; in series [4] (tibial cancellous bone), 279 (188) min. For the same molecule, the Tmax is given as 20 (19) min in series [3] (plasma); 65 (26) min in series [4] (setting [5]); 70 (19) min in series [4] (subcutaneous tissue); 45 (21) min in series [4] (setting [6]); 111 (94) min in series [4] (tibial cancellous bone); 405 (278) min in series [4] (tibial cortical bone). Besides, the “vancomycin concentration after 11.5 h (690 min), end concentration” value in series [4] (tibial cancellous bone) is 278 (469) µg/mL.
